According to article PMC10967458, “A FtsZ Inhibitor That Can Utilize Siderophore-Ferric Iron Uptake Transporter Systems for Activity against Gram-Negative Bacterial Pathogens” (Antibiotics, 2024):

Target: K. pneumoniae FtsZ (KpFtsZ) (Klebsiella pneumoniae, UniProt A0A0H3GRR0)
Assay: fluorescence anisotropy titration of intrinsically fluorescent RUP4 ([…]) with purified KpFtsZ, […] °C, […] fit
Assay type: binding

Chain of K. pneumoniae FtsZ (KpFtsZ) (A0A0H3GRR0 entry or part of it): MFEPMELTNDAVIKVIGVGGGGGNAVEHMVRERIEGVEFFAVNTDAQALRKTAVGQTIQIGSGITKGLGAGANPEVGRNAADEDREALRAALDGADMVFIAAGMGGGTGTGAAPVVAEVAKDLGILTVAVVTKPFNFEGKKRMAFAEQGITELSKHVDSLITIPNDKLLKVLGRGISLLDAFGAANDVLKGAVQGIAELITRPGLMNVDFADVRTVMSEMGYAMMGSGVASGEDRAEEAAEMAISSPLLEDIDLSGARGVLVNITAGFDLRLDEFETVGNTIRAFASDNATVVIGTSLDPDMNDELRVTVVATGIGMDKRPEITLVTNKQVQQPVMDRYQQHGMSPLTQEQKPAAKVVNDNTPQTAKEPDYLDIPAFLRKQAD

NC(=O)c1c(F)ccc(OC(CCNC(=O)c2ccc(O)c(O)c2Cl)c2nc(-c3ccc(C(F)(F)F)cc3)c(Br)o2)c1F (stereo not shown) [RUP4]
Kd: 49 ± 5 µM
